Columns and labels:
Y371H-M173L GalK = target: T1, Y371H-M173L GalK (Escherichia coli, UniProt P0A6T3, M173L/Y371H); experiment: In vivo conversion of fed unnatural sugars to sugar-1-phosphates in E. coli host overexpressing GalK double mutant; assay type: cell-based; conditions: sugar fed at 4 mM to E. coli overexpressing Y371H-M173L GalK, 16° C., 16 hr; fluorescence HPLC after labelling with 50
T1 construct: His-tag (concluded: same plasmid pGalKMLYH in pET-15b whose product was purified on Ni-NTA); expressed in transfected cells; host or cells: E. coli host carrying pGalKMLYH (pET-15b), IPTG-induced at 16 °C
T1 sequence (P0A6T3 whole entry M173L/Y371H): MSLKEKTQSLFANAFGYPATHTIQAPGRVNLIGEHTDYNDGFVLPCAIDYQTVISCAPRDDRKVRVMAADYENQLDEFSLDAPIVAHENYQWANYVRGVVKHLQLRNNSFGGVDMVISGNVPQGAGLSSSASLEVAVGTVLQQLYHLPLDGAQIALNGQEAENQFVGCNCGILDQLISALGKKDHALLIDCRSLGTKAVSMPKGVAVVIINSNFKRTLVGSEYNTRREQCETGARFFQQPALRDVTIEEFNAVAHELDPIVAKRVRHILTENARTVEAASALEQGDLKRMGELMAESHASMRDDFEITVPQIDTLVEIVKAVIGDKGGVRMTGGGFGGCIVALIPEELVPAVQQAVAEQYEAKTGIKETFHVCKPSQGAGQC
From the text: FIG. 9. In vivo GalK-catalyzed sugar-1-phosphate production. (a) Experimental overview using 6-azido-6-deoxy-D-galactose (22) as an example: 22 is fed to an E. coli host expressing the M173L-Y371H GalK double mutant and the reactants and products subsequently labeled using a […] with the fluorescent tag 50. (b) HPLC chromatographs of bioconversions: i)22 with Y371H-M173L GalK; ii)46 with Y371H-M173L GalK; iii) 22 with wild-type GalK. MS: 50, calculated for C20H25N3O3S 387.2, found m/z 386.1 [M−H]^−; 51, calculated for C26H37N6O11PS 672.2, found m/z 671.2 [M−H]^−; 52, calculated for C26H36N6O8S 592.2, found m/z 591.2 [M−H]
In Vivo Conversion Analysis. […] The reaction mixture was subsequently centrifuged to remove CuI and the supernatant (diluted 2-fold) directly analyzed by HPLC and LC-MS calculated for C26H37N6O11PS 672.20, found m/z […] 671.20.
To assess the Y371H-M173L GalK-catalyzed in vivo production of unnatural sugar-1-phosphates (FIG. 9a), the unnatural sugars (22 or 46, 4 mM final concentration) were fed to an E. coli host (40 mL culture) which overexpressed the promiscuous GalK. After a designated time, the extracts were analyzed via the specific attachment of a fluorescent tag (50), to both starting material (22 or 46) and desired sugar-1-phosphate products, using 1,3-dipolar cycloaddition. […]

[1] = target: T2, E. coli double M173L-Y371H mutant GalK (Escherichia coli, UniProt P0A6T3, M173L/Y371H); experiment: Substrate screen / percent conversion of 45 sugars, M173L-Y371H; assay type: biochemical; conditions: for in vitro conversion by M173L-Y371H: in 2 hrs
T2 construct: His-tag (concluded from Ni-NTA purification and vector pET15b); made in house
T2 sequence (P0A6T3 whole entry M173L/Y371H): as above
From the text: Characterization of GalK Mutants. […] The mutant enzymes were purified by using metal affinity chromatography on Ni-NTA Spin Columns (QIAGEN, Valencia, Calif.) and fractions containing homogenous protein were collected, concentrated and quantified using the Bradford protein assay. The DNS assay was used to assess the substrate specificity of the purified GalK mutants as previously described. […] For each sugar, the DNS assay was used to monitor the reaction progress and control assays in the absence of enzyme or sugar were performed in parallel. Standard curves for each sugar were prepared as described. To assess general percent conversion, each reaction contained 15.0 (M enzyme, 8 mM sugar, 14 mM ATP and 3.5 mM MgCl2. […] For monosaccharide kinetic data determination, the sugar concentration was varied over a range of 1-8 mM, under saturating ATP (14 mM). Reaction progress was assessed via the DNS assay, wherein a change in absorbance at 575 nm as a function of time was obtained and the initial velocity determined by the slope of the linear phase in the progress curve. The kinetic data was analyzed using Enzyme Kinetics Module software (SSPS, Inc., Chicago, Ill.) as previously described.
(§1) Characterization of Engineered E. coli GalK Mutants.

wild-type E. coli GalK [2] = target: T3, wild-type E. coli GalK (Escherichia coli, UniProt P0A6T3); assay type: biochemical
T3 construct: made in house
T3 sequence (P0A6T3 1-382): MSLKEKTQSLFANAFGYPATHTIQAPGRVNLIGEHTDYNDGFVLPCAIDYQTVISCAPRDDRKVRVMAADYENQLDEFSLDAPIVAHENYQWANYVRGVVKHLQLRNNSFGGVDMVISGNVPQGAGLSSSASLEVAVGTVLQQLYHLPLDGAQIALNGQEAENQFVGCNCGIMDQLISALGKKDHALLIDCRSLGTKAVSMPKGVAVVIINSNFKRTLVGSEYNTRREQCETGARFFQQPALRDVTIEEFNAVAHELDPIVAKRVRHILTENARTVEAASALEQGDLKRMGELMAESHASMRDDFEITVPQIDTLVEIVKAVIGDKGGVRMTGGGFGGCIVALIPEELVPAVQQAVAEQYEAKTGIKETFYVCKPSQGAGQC
From the text: (§2) Characterization of GalK Mutants. […] The mutant enzymes were purified by using metal affinity chromatography on Ni-NTA Spin Columns (QIAGEN, Valencia, Calif.) and fractions containing homogenous protein were collected, concentrated and quantified using the Bradford protein assay. The DNS assay was used to assess the substrate specificity of the purified GalK mutants as previously described. […] For each sugar, the DNS assay was used to monitor the reaction progress and control assays in the absence of enzyme or sugar were performed in parallel. Standard curves for each sugar were prepared as described. To assess general percent conversion, each reaction contained 15.0 (M enzyme, 8 mM sugar, 14 mM ATP and 3.5 mM MgCl2. The reactions were incubated at 37° C. for 3 hrs after which the reactions were quenched with MeOH, centrifuged (10 min, 12,000 rpm) and then the supernatant (diluted 20-fold) submitted for LC-MS and MS/MS analysis. For monosaccharide kinetic data determination, the sugar concentration was varied over a range of 1-8 mM, under saturating ATP (14 mM). Reaction progress was assessed via the DNS assay, wherein a change in absorbance at 575 nm as a function of time was obtained and the initial velocity determined by the slope of the linear phase in the progress curve. The kinetic data was analyzed using Enzyme Kinetics Module software (SSPS, Inc., Chicago, Ill.) as previously described.
as §1

[3] = target: T4, E. coli GalK Y371H mutant (Escherichia coli, UniProt P0A6T3, Y371H); assay type: biochemical
T4 construct: His-tag (concluded from Ni-NTA purification and vector pET15b); made in house; host or cells: E. coli BL21-Gold (DE3), vector pET15b
T4 sequence (P0A6T3 whole entry Y371H): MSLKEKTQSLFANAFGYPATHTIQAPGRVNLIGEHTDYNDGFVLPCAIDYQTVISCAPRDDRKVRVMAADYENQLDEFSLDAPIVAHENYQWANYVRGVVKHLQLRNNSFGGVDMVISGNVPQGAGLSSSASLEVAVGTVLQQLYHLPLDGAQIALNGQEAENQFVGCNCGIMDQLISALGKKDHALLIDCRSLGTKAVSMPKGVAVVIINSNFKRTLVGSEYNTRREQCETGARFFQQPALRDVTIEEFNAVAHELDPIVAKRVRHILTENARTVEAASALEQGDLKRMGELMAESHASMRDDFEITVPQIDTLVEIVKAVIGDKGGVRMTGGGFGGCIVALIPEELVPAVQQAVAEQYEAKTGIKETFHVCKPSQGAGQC
From the text: as §2, §1

[4] = target: T5, E. coli GalK M173L mutant (Escherichia coli, UniProt P0A6T3, M173L); experiment: Substrate screen / percent conversion of 45 sugars, M173L; assay type: biochemical
T5 construct: His-tag (concluded from Ni-NTA purification and vector pET15b); made in house
T5 sequence (P0A6T3 whole entry M173L): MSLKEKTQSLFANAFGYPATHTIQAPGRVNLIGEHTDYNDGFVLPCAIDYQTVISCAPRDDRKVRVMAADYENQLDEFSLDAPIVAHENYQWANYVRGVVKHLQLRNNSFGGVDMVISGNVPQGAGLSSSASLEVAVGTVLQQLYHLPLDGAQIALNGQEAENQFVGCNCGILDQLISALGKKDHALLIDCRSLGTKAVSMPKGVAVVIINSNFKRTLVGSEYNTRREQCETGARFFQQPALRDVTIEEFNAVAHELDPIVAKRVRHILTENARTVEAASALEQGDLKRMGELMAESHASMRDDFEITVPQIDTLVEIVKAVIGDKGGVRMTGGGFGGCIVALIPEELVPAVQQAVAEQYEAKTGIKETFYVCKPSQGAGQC
From the text: as §2, §1

GalK mutant Y371H = GalK mutant Y371H (Escherichia coli, UniProt P0A6T3, Y371H); conditions: DNS assay and thin layer chromatography
Sequence of GalK mutant Y371H (P0A6T3 whole entry Y371H): as the sequence (P0A6T3 whole entry Y371H) above

GalK variant Y371H = target: T6, GalK variant Y371H (Escherichia coli, UniProt P0A6T3, Y371H); experiment: Preparative phosphorylation of L-altrose by GalK Y371H, conversion by DNS assay; assay type: biochemical, E. coli; conditions: within four hours, 37° C., Y371H 150 μg mL^−1
T6 construct: His-tag (concluded from Ni-NTA purification and vector pET15b); made in house; host or cells: E. coli BL21-Gold (DE3), vector pET15b
T6 sequence (P0A6T3 whole entry Y371H): as above
Method: Preparative phosphorylation of L-altrose and product characterization. […] To this solution, ATP (125 mg, 0.23 mmol), MgCl2.6H2O (15.3 mg, 0.07 mmol) were added, the mixture incubated at 37° C. for 5 min, the reaction initiated via the addition of enzyme (Y371H) to a final concentration of 150 μg mL^−1 and reaction progress monitored by TLC. After completion, the mixture was diluted 5-fold in ddH2O and applied to a 200 mL anion exchange column (Q-Sepharose fast flow, Amersham, Piscataway, N.J.). The column was eluted with a gradient of 0-400 mM NaCl and the active fraction was collected and evaporated under reduced pressure. The crude product was desalted on a P-2 gel filtration column (The Nest Group, Southboro, Mass.) to give 16.1 mg of purified product (yield: 52%). [α]D=3.5° (c=1, H2O) ^1H NMR (D2O): 5.48 (dd, J=8.6, 1.8 Hz, 1H), 4.14 (dd, 5.3, 3.3 Hz, 1H), 3.99 (m, 1H), 3.98 (dd, J=4.3, 1.8 Hz, 1H), 3.91 (d, J=3.3, 1H), 3.89 (m, 1H), 3.84 (dd, J=12.1, 7.8 Hz, 1H); ^13C NMR (D2O): 94.10, 76.23, 70.70, 69.99, 65.68, 62.21; ^31P NMR (D2O): 3.77; MS: calculated for C6H13O9P 260.0, found m/z 259.0 [M−H]^−.
Confirmation of L-sugar conversion. […] To confirm the evolved enzyme retains regio- and stereoselectivity with L-sugar substrates, a representative L-sugar reaction product was further characterized. […]

wild-type E. coli GalK [5] = target: T3, wild-type E. coli GalK; experiment: Kinetics and substrate specificity of wild-type GalK with sugar substrates (DNS assay), Table 1; assay type: biochemical

## [N-]=[N+]=NC[C@@H](O)[C@H](O)[C@H](O)[C@@H](O)C=O [6-azido-6-deoxy-D-galactose (22), 6-azido-6-deoxy-D-galactose]
Y371H-M173L GalK
  in vivo conversion to sugar-1-phosphate: ~69%
[1]
  kinase activity of M173L-Y371H double mutant (in words): accept
  in vitro yield (conversion) quoted for comparison with in vivo: ~50%
  in vitro conversion by M173L-Y371H: > 50%
wild-type E. coli GalK [2]
  substrate of wild-type E. coli GalK (in words): not a substrates
[3]
  substrate of Y371H (in words): failed
[4]
  substrate of M173L (in words): failed

## [N-]=[N+]=NC[C@@H](O)[C@@H](O)[C@H](O)[C@@H](O)C=O [6-azido-6-deoxy-D-glucose (46), 6-azido-6-deoxy-D-glucose]
Y371H-M173L GalK
  in vivo conversion to sugar-1-phosphate: ~15%
[1]
  kinase activity of M173L-Y371H double mutant (in words): accept
  in vitro yield (conversion) quoted for comparison with in vivo: ~50%
  in vitro conversion by M173L-Y371H: ~15%
wild-type E. coli GalK [2]
  substrate of wild-type E. coli GalK (in words): not a substrates
[3]
  substrate of Y371H (in words): failed
[4]
  substrate of M173L (in words): failed

## O=C[C@H](O)[C@@H](O)[C@@H](O)[C@@H](O)CO [L-Alt (16), L-altrose]
GalK mutant Y371H
  kinase activity / turnover by GalK Y371H (in words): substantial degree of kinase activity
GalK variant Y371H
  conversion of L-altrose: 91%
wild-type E. coli GalK [5]
  substrate of wild-type GalK (in words): failed as wild-type GalK substrates
